Reference: ChEMBL document CHEMBL1138083, “Antidyslipidemic activity of furano-flavonoids isolated from Indigofera tinctoria” (2006)
Activity calls are given as the source filed them. No cut-off for these calls is given here.

Key:
Type in all cases: functional, Mesocricetus auratus
[1] = test system: Syrian golden hamster; experiment: Increase in HDL cholesterol level in hamster at 50 mg/kg, po
[2] = test system: Syrian golden hamster; experiment: Decrease in plasma triglyceride level in hamster at 50 mg/kg, po; set-up: scale not given: the % may be the effect or the level left
[3] = test system: Syrian golden hamster; experiment: Decrease in glycerol level in hamster at 50 mg/kg, po; set-up: scale not given: the % may be the effect or the level left
[4] = test system: Syrian golden hamster; experiment: Increase in HDL cholesterol to total cholesterol level in hamster at 50 mg/kg, po
[5] = test system: Syrian golden hamster; experiment: Decrease in total cholesterol level in hamster at 50 mg/kg, po; set-up: scale not given: the % may be the effect or the level left
[6] = test system: Syrian golden hamster; experiment: Decrease in free fatty acid in hamster at 50 mg/kg, po; set-up: scale not given: the % may be the effect or the level left
[7] = test system: Syrian golden hamster; experiment: Increase in free fatty acid in hamster at 50 mg/kg, po

Row | SMILES | Activity [1] | Activity [2] | Activity [3] | Activity [4] | Activity [5] | Activity [6] | Activity ([5]; Mesocricetus auratus) | Activity [7]
1 | CC(=O)O[C@@H]1[C@@H]2c3c(ccc4c(=O)cc(-c5ccccc5)oc34)O[C@@H]2OC1(C)C | 8% | 60% | 13% | 36% | 19% | 25% | – | –
2 | CC(=O)OC1C(C)(C)OC(=O)C12COc1ccc3c(=O)cc(-c4ccccc4)oc3c12 (stereo not drawn) | 28% | 41% | 6% | 26% | – | – | inactive | 7%
3 | CC(=O)O[C@H]1[C@@H]2c3c(ccc4c(=O)cc(-c5ccccc5)oc34)O[C@@H]2OC1(C)C | 8% | 60% | 13% | 36% | 19% | 25% | – | –
